Source: patent US5064954A, “Process for producing halomethylcarbapenems” (Shionogi & Co., Ltd., priority 1990, dated 1991)
Values after ≈ are worked out from the molar mass of the structure shown.

Legend:
Assay type in all cases: cell-based
S. aureus Smith = assay: MIC against S. aureus Smith; settings: Staphylococcus aureus; Table I; S = S. aureus Smith; inoculum size = 10^5 /ml
Description: |MIC: μg/ml (inoculum size = 10^5 /ml) |S = S. aureus Smith

Ps. aeruginosa SR-24 = assay: MIC against Ps. aeruginosa SR-24; settings: Pseudomonas aeruginosa, SR24; Table I; P = Ps. aeruginosa SR-24; inoculum size = 10^5 /ml
Description: |MIC: μg/ml (inoculum size = 10^5 /ml) |P = Ps. aeruginosa SR-24

E. coli EC-14 = assay: MIC against E. coli EC-14; settings: Escherichia coli, EC14; Table I; E = E. coli EC-14; inoculum size = 10^5 /ml
Description: |MIC: μg/ml (inoculum size = 10^5 /ml) |E = E. coli EC-14

| SMILES | MIC (S. aureus Smith) [µg/mL] | MIC (Ps. aeruginosa SR-24) [µg/mL] | MIC (E. coli EC-14) [µg/mL] |
| --- | --- | --- | --- |
| CC(O)[C@H]1C(=O)N2C(C(=O)[O-])=C(C[n+]3ccccc3)[C@H](C)[C@H]12 (stereo partly drawn) [Table I No. 3, 1β-methyl-2-pyridiniomethyl-6α-(1-hydroxyethyl)-1-carba-2-penem-4-carboxylate] | 0.0125 (≈ 0.0413 µM) | 1.56 (≈ 5.16 µM) | 0.1 (≈ 0.331 µM) |
| Cc1ccc[n+](CC2=C(C(=O)[O-])N3C(=O)[C@H](C(C)O)[C@H]3[C@H]2C)c1 (stereo partly drawn) [Table I No. 5] | 0.025 (≈ 0.079 µM) | 1.56 (≈ 4.93 µM) | 0.2 (≈ 0.632 µM) |
| CCc1cc[n+](CC2=C(C(=O)[O-])N3C(=O)[C@H](C(C)O)[C@H]3[C@H]2C)cc1 (stereo partly drawn) [Table I No. 7] | 0.025 (≈ 0.0757 µM) | 3.13 (≈ 9.47 µM) | 0.39 (≈ 1.18 µM) |
| CC(O)[C@H]1C(=O)N2C(C(=O)[O-])=C(C[n+]3cccc4c3CCC4)[C@H](C)[C@H]12 (stereo partly drawn) [Table I No. 8] | 0.025 (≈ 0.073 µM) | 6.25 (≈ 18.3 µM) | 0.2 (≈ 0.584 µM) |
| CC(O)[C@H]1C(=O)N2C(C(=O)[O-])=C(C[n+]3cccc(CNC=O)c3)[C@H](C)[C@H]12 (stereo partly drawn) [Table I No. 11] | 0.05 (≈ 0.139 µM) | 3.13 (≈ 8.71 µM) | 0.78 (≈ 2.17 µM) |
| CCC(=O)c1cc[n+](CC2=C(C(=O)[O-])N3C(=O)[C@H](C(C)O)[C@H]3[C@H]2C)cc1 (stereo partly drawn) [Table I No. 13] | 0.05 (≈ 0.14 µM) | 3.13 (≈ 8.73 µM) | 0.76 (≈ 2.12 µM) |
| CC(O)[C@H]1C(=O)N2C(C(=O)[O-])=C(C[n+]3cccc(C(N)=O)c3)[C@H](C)[C@H]12 (stereo partly drawn) [Table I No. 14] | 0.025 (≈ 0.0724 µM) | 1.56 (≈ 4.52 µM) | 0.39 (≈ 1.13 µM) |
| CC(O)[C@H]1C(=O)N2C(C(=O)[O-])=C(C[n+]3ccc(C(N)=O)cc3)[C@H](C)[C@H]12 (stereo partly drawn) [Table I No. 15] | 0.025 (≈ 0.0724 µM) | 1.56 (≈ 4.52 µM) | 0.39 (≈ 1.13 µM) |
| CC(O)[C@H]1C(=O)N2C(C(=O)[O-])=C(C[n+]3cccc(-c4cnco4)c3)[C@H](C)[C@H]12 (stereo partly drawn) [Table I No. 16] | 0.025 (≈ 0.0677 µM) | 1.56 (≈ 4.22 µM) | 0.2 (≈ 0.541 µM) |
| CC(O)[C@H]1C(=O)N2C(C(=O)[O-])=C(C[n+]3ccc(-c4ncco4)cc3)[C@H](C)[C@H]12 (stereo partly drawn) [Table I No. 17] | 0.025 (≈ 0.0677 µM) | 3.13 (≈ 8.47 µM) | 0.2 (≈ 0.541 µM) |
| CC(O)[C@H]1C(=O)N2C(C(=O)[O-])=C(C[n+]3ccc(-c4cnco4)cc3)[C@H](C)[C@H]12 (stereo partly drawn) [Table I No. 18] | 0.025 (≈ 0.0677 µM) | 6.25 (≈ 16.9 µM) | 0.39 (≈ 1.06 µM) |

More lines, now with the values ahead:

| MIC (S. aureus Smith) [µg/mL] | MIC (Ps. aeruginosa SR-24) [µg/mL] | MIC (E. coli EC-14) [µg/mL] | SMILES |
| --- | --- | --- | --- |
| 0.025 (≈ 0.0811 µM) | 3.13 (≈ 10.2 µM) | 0.1 (≈ 0.324 µM) | CC(O)[C@H]1C(=O)N2C(C(=O)[O-])=C(C[n+]3ccsc3)[C@H](C)[C@H]12 (stereo partly drawn) [Table I No. 1] |
| 0.0125 (≈ 0.0387 µM) | 6.25 (≈ 19.3 µM) | 0.78 (≈ 2.41 µM) | CC(O)[C@H]1C(=O)N2C(C(=O)[O-])=C(C[n+]3ccsc3N)[C@H](C)[C@H]12 (stereo partly drawn) [Table I No. 2] |
| 0.025 (≈ 0.079 µM) | 3.13 (≈ 9.89 µM) | 0.2 (≈ 0.632 µM) | Cc1cccc[n+]1CC1=C(C(=O)[O-])N2C(=O)[C@H](C(C)O)[C@H]2[C@H]1C (stereo partly drawn) [Table I No. 4] |
| 0.025 (≈ 0.079 µM) | 3.13 (≈ 9.89 µM) | 0.39 (≈ 1.23 µM) | Cc1cc[n+](CC2=C(C(=O)[O-])N3C(=O)[C@H](C(C)O)[C@H]3[C@H]2C)cc1 (stereo partly drawn) [Table I No. 6] |
| 0.05 (≈ 0.151 µM) | 3.13 (≈ 9.45 µM) | 0.78 (≈ 2.35 µM) | CC(O)[C@H]1C(=O)N2C(C(=O)[O-])=C(C[n+]3cccc(CN)c3)[C@H](C)[C@H]12 (stereo partly drawn) [Table I No. 9] |
| 0.05 (≈ 0.151 µM) | 3.13 (≈ 9.45 µM) | 0.78 (≈ 2.35 µM) | CC(O)[C@H]1C(=O)N2C(C(=O)[O-])=C(C[n+]3ccc(CN)cc3)[C@H](C)[C@H]12 (stereo partly drawn) [Table I No. 10] |
| 0.0125 (≈ 0.0394 µM) | 1.56 (≈ 4.92 µM) | 0.2 (≈ 0.63 µM) | CC(O)[C@H]1C(=O)N2C(C(=O)[O-])=C(C[n+]3cccc(N)c3)[C@H](C)[C@H]12 (stereo partly drawn) [Table I No. 19] |
